Measurements published in PubChem BioAssay AID1259407 (Chemical Carcinogenesis Research Information System (CCRIS), 2018).
Activity calls are given as the source filed them. The rule behind the calls is not given here.

Tested on: CCRIS mutagenicity, Ames/micronucleus/aberration tests
Experiment: CCRIS mutagenicity studies
[1] = Test System: AMES SALMONELLA TYPHIMURIUM, Strain/Indicator: TA98, Metabolic Activation: NONE, Method: PREINCUBATION
[2] = Test System: AMES SALMONELLA TYPHIMURIUM, Strain/Indicator: TA100, Metabolic Activation: NONE, Method: PREINCUBATION

Measured: mutagenic call

CC(C)C[C@@H]1NC(=O)[C@H](C)N(C)C(=O)CNC(=O)/C(=C/c2ccccc2)N(C)C1=O
inactive: Test System: AMES SALMONELLA TYPHIMURIUM, Strain/Indicator: TA98, Metabolic Activation: NONE, Method: STANDARD PLATE inactive; negative | Test System: AMES SALMONELLA TYPHIMURIUM, Strain/Indicator: TA98, Metabolic Activation: RAT LIVER S-9, AROCLOR 1254, Method: STANDARD PLATE inactive; negative | Test System: AMES SALMONELLA TYPHIMURIUM, Strain/Indicator: TA100, Metabolic Activation: NONE, Method: STANDARD PLATE inactive; negative | Test System: AMES SALMONELLA TYPHIMURIUM, Strain/Indicator: TA100, Metabolic Activation: RAT LIVER S-9, AROCLOR 1254, Method: STANDARD PLATE inactive; negative | Test System: Ames Salmonella typhimurium, Strain/Indicator: TA97, Metabolic Activation: None, Method: Standard plate inactive; negative. nitrosation did not increase mutagenicity | Test System: Ames Salmonella typhimurium, Strain/Indicator: TA97, Metabolic Activation: Rat, Liver, S-9, Aroclor 1254 (10%), Method: Standard plate inactive; negative. nitrosation did not increase mutagenicity | Test System: Ames Salmonella typhimurium, Strain/Indicator: TA102, Metabolic Activation: None, Method: Standard plate inactive; negative. nitrosation did not increase mutagenicity | Test System: Ames Salmonella typhimurium, Strain/Indicator: TA102, Metabolic Activation: Rat, Liver, S-9, Aroclor 1254 (10%), Method: Standard plate inactive; negative. nitrosation did not increase mutagenicity | Test System: Ames Salmonella typhimurium, Strain/Indicator: TA104, Metabolic Activation: None, Method: Standard plate inactive; negative. nitrosation did not increase mutagenicity | Test System: Ames Salmonella typhimurium, Strain/Indicator: TA104, Metabolic Activation: Rat, Liver, S-9, Aroclor 1254 (10%), Method: Standard plate inactive; negative. nitrosation did not increase mutagenicity

Oc1ccc(-c2ccc(O)cc2)cc1
inactive: Test System: AMES SALMONELLA TYPHIMURIUM, Strain/Indicator: TA97, Metabolic Activation: NONE, Method: PREINCUBATION inactive; negative | Test System: AMES SALMONELLA TYPHIMURIUM, Strain/Indicator: TA97, Metabolic Activation: RAT, LIVER, S-9, AROCLOR 1254, Method: PREINCUBATION inactive; negative | [1] inactive; negative | Test System: AMES SALMONELLA TYPHIMURIUM, Strain/Indicator: TA98, Metabolic Activation: RAT, LIVER, S-9, AROCLOR 1254, Method: PREINCUBATION inactive; negative | [2] inactive; negative | Test System: AMES SALMONELLA TYPHIMURIUM, Strain/Indicator: TA100, Metabolic Activation: RAT, LIVER, S-9, AROCLOR 1254, Method: PREINCUBATION inactive; negative | Test System: AMES SALMONELLA TYPHIMURIUM, Strain/Indicator: TA102, Metabolic Activation: NONE, Method: PREINCUBATION inactive; negative | Test System: AMES SALMONELLA TYPHIMURIUM, Strain/Indicator: TA102, Metabolic Activation: RAT, LIVER, S-9, AROCLOR 1254, Method: PREINCUBATION inactive; negative | Test System: AMES SALMONELLA TYPHIMURIUM, Strain/Indicator: TA104, Metabolic Activation: NONE, Method: PREINCUBATION inactive; negative | Test System: AMES SALMONELLA TYPHIMURIUM, Strain/Indicator: TA104, Metabolic Activation: RAT, LIVER, S-9, AROCLOR 1254, Method: PREINCUBATION inactive; negative | Test System: AMES SALMONELLA TYPHIMURIUM, Strain/Indicator: TA1535, Metabolic Activation: NONE, Method: PREINCUBATION inactive; negative | Test System: AMES SALMONELLA TYPHIMURIUM, Strain/Indicator: TA1535, Metabolic Activation: RAT, LIVER, S-9, AROCLOR 1254, Method: PREINCUBATION inactive; negative | Test System: CHINESE HAMSTER V-79, Strain/Indicator: V-79/6-THIOGUANINE, Metabolic Activation: NONE inactive; negative

[O-][n+]1cc2ncccc2cn1
inactive: [1] inactive; negative | Test System: AMES SALMONELLA TYPHIMURIUM, Strain/Indicator: TA98, Metabolic Activation: RAT, LIVER, S-9, PCB, Method: PREINCUBATION inactive; negative | [2] inactive; negative | Test System: AMES SALMONELLA TYPHIMURIUM, Strain/Indicator: TA100, Metabolic Activation: RAT, LIVER, S-9, PCB, Method: PREINCUBATION inactive; negative
